Source: patent US20250179047A1, “5-[7-(3,4-DIHYDRO-1H-ISOQUINOLINE-2-CARBONYL)-1,2,3,4 TETRAHYDROISOQUINOLIN-6-YL]-1H-PYRROLE-3-CARBOXAMIDE DERIVATIVES, PHARMACEUTICAL COMPOSITIONS CONTAINING THEM AND THEIR USES AS PRO-APOPTOTIC AGENTS” (LES LABORATOIRES SERVIER, priority 2022, published 2025)

What was measured:
[1] = target: BCLXL WT (Homo sapiens (Human), UniProt Q07817); assay: TR-FRET competitive binding assay, BCLXL WT; details: for Ki: BCLXL WT, Ki determined from IC50, read-out: TR_FRET EKI BclxL; for TR_FRET EKI BCLxL/WT selectivty ratio: ratio Ki BCLxL / Ki BCL2 WT
Procedure, shortened: (§1)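 Terbium-labelled N-terminal Halo-fusion BCL2 or BCLXL (E. coli), 0.5 nM, competed against fluorescein-labelled PUMA peptide (2 or 20 nM) for 2 h at 23° C in 50 mM Hepes pH 7.5, 150 mM NaCl, 5% DMSO. TR-FRET 520/495 nm ratio gave IC50 by four-parameter fit; Ki derived from IC50.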

[2] = target: BCL2 WT (Homo sapiens (Human), UniProt P10415); assay: TR-FRET competitive binding assay, BCL2 WT; details: Ki determined from IC50, read-out: TR_FRET EKI_Bcl2 WT
Procedure, shortened: as §1

[3] = target: BCL2 D103Y (Homo sapiens, UniProt P10415, D103Y); assay: TR-FRET competitive binding assay, BCL2 D103Y; details: Ki determined from IC50, read-out: TR_FRET EKI_Bcl2 D103Y
Procedure, shortened: as §1

[4] = system: KMS-12-PE Bcl-2 G101V; assay: In vitro cytotoxicity CellTiter-Glo 48 h, KMS-12-PE Bcl-2 G101V; type: cell-based; details: for Ratio (G101V/WT): C50 KMS-12-PE Bcl-2 G101V over C50 KMS-12-PE Bcl-2 WT; for IC50: Homo sapiens, KMS-12-PE, 48 h, CellTiter-Glo, C50 = concentration needed to reach 50% of the cellular viability
Procedure, shortened: (§2)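 KMS-12-PE myeloma cells were lentivirally transduced with wild-type or G101V-mutant Bcl-2 and sorted by TagRFP. They were exposed to compounds as 11-point dose responses for 48 h at 37 °C, 5% CO2. Viability was read by CellTiter-Glo ATP luminescence, and C50 was the concentration giving 50% viability.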

[5] = target: BCL2 G101V (Homo sapiens, UniProt P10415, G101V); assay: TR-FRET competitive binding assay, BCL2 G101V; details: BCL2 G101V; Ki determined from IC50; read-out: TR_FRET EKI_Bcl2 G101V
Procedure, shortened: as §1

[6] = system: BCL2 G101V; assay: TR-FRET competitive binding assay, BCL2 G101V; parameters: species or system human; details: ratio Ki BCL2 G101V / Ki BCL2 WT
Procedure, shortened: as §1

[7] = system: KMS-12-PE Bcl-2 WT; assay: In vitro cytotoxicity CellTiter-Glo 48 h, KMS-12-PE Bcl-2 WT; type: cell-based; details: Homo sapiens, KMS-12-PE, C50 = concentration needed to reach 50% of the cellular viability
Procedure, shortened: as §2

Chain of BCLXL WT (Q07817 other isoform, or with tags, fused parts or gaps): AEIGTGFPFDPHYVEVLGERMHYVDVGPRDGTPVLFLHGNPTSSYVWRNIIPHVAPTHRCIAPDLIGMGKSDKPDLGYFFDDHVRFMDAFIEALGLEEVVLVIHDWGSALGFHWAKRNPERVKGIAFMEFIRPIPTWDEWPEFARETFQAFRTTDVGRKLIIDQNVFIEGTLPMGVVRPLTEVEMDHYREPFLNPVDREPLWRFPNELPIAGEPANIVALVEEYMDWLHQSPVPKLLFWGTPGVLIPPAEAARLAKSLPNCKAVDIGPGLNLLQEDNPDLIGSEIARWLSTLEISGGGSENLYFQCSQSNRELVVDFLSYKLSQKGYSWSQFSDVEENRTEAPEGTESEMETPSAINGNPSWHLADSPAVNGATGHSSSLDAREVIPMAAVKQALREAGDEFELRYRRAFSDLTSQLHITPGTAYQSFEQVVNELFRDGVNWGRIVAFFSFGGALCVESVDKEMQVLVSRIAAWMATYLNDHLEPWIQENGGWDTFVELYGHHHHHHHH

| Structure (SMILES) | Ki [1] [nM] | TR_FRET EKI BCLxL/WT selectivty ratio [1] | Ki [2] [nM] | Ki [3] [nM] | Ki [5] [nM] | TR_FRET EKI G101V/WT selectivty ratio [6] | Ratio (G101V/WT) [4] | IC50 [4] [µM] | IC50 [7] [µM] |
| --- | --- | --- | --- | --- | --- | --- | --- | --- | --- |
| Cc1c(N(C(=O)c2cc(-c3cc4c(cc3C(=O)N3Cc5ccccc5C[C@H]3CN3CCCCC3)CN(C(=O)Cc3ccc(OCCN(C)CCF)cc3)CC4)n(C)c2C)c2ccc(O)cc2)cc(C#N)n1C [Example 116, N-(5-cyano-1,2-dimethyl-1H-pyrrol-3-yl)-5-{2-[2-(4-{2-[(2-fluoroethyl)(methyl)amino]ethoxy}phenyl)acetyl]-7-[(3S)-3-[(piperidin-1-yl)methyl]-1,2,3,4-tetrahydroisoquinoline-2-carbonyl]-1,2,3,4-tetrahydroisoquinolin-6-yl}-N-(4-hydroxyphenyl)-1,2-dimethyl-1H-pyrrole-3-carboxamide] | 3.3 | 61.1 | 0.05 | 0.19 | 0.4 | 7.0 | 5.25 | 0.0583 | 0.0111 |
| Cc1c(N(C(=O)c2cc(-c3cc4c(cc3C(=O)N3Cc5ccccc5C[C@H]3CN3CCCCC3)CN(C(=O)Cc3ccc(OCCC5CCOCC5)nc3)CC4)n(C)c2C)c2ccc(O)cc2)cc(C#N)n1C [Example 118, N-(5-cyano-1,2-dimethyl-1H-pyrrol-3-yl)-N-(4-hydroxyphenyl)-1,2-dimethyl-5-[2-(2-{6-[2-(oxan-4-yl)ethoxy]pyridin-3-yl}acetyl)-7-[(3S)-3-[(piperidin-1-yl)methyl]-1,2,3,4-tetrahydroisoquinoline-2-carbonyl]-1,2,3,4-tetrahydroisoquinolin-6-yl]-1H-pyrrole-3-carboxamide] | 5.2 | 52.5 | 0.1 | 0.14 | 0.5 | 5.1 | 7.61 | 0.0814 | 0.0107 |
| Cc1c(N(C(=O)c2cc(-c3cc4c(cc3C(=O)N3Cc5ccccc5C[C@H]3CN3CCCCC3)CN(C(=O)Cc3ccc(OCCN5CCN(CCF)CC5)cc3)CC4)n(C)c2C)c2ccc(O)cc2)cc(C#N)n1C [Example 122, N-(5-cyano-1,2-dimethyl-1H-pyrrol-3-yl)-5-{2-[2-(4-{2-[4-(2-fluoroethyl)piperazin-1-yl]ethoxy}phenyl)acetyl]-7-[(3S)-3-[(piperidin-1-yl)methyl]-1,2,3,4-tetrahydroisoquinoline-2-carbonyl]-1,2,3,4-tetrahydroisoquinolin-6-yl}-N-(4-hydroxyphenyl)-1,2-dimethyl-1H-pyrrole-3-carboxamide] | 3.7 | 69.8 | 0.05 | 0.13 | 0.3 | 5.1 | 3.96 | 0.0662 | 0.0167 |
| Cc1c(C(=O)N(c2ccc(O)cc2)c2cc(C#N)n(C(F)F)c2C)cc(-c2cc3c(cc2C(=O)N2Cc4ccccc4C[C@H]2CN2CCCCC2)CN(C(=O)Cc2ccc(OCCN4C[C@@H](C)O[C@@H](C)C4)cc2)CC3)n1C [Example 129, N-[5-cyano-1-(difluoromethyl)-2-methylpyrrol-3-yl]-5-{2-[2-(4-{2-[cis-2,6-dimethylmorpholin-4-yl]ethoxy}phenyl)acetyl]-7-{[(3S)-3-(piperidin-1-ylmethyl)-3,4-dihydro-1H-isoquinolin-2-yl]carbonyl}-3,4-dihydro-1H-isoquinolin-6-yl}-N-(4-hydroxyphenyl)-1,2-dimethylpyrrole-3-carboxamide] | 14.4 | 96.0 | 0.15 | 0.24 | 0.8 | 5.5 | 4.5143 | 0.0632 | 0.014 |

Continued, in another order:

| Ki [1] [nM] | TR_FRET EKI BCLxL/WT selectivty ratio [1] | Ki [2] [nM] | Ki [3] [nM] | Ki [5] [nM] | TR_FRET EKI G101V/WT selectivty ratio [6] | Structure (SMILES) | Ratio (G101V/WT) [4] | IC50 [4] [µM] | IC50 [7] [µM] |
| --- | --- | --- | --- | --- | --- | --- | --- | --- | --- |
| 7.1 | 134.0 | 0.05 | 0.1 | 0.3 | 5.6 | Cc1c(N(C(=O)c2cc(-c3cc4c(cc3C(=O)N3Cc5ccccc5C[C@H]3CN3CCCCC3)CN(C(=O)Cc3ccc(OCCN5CCN(CC(F)F)CC5)cc3)CC4)n(C)c2C)c2ccc(O)cc2)cc(C#N)n1C [Example 112, N-(5-cyano-1,2-dimethylpyrrol-3-yl)-5-{2-[2-(4-{2-[4-(2,2-difluoroethyl)piperazin-1-yl]ethoxy}phenyl)acetyl]-7-{[(3S)-3-(piperidin-1-ylmethyl)-3,4-dihydro-1H-isoquinolin-2-yl]carbonyl}-3,4-dihydro-1H-isoquinolin-6-yl}-N-(4-hydroxyphenyl)-1,2-dimethylpyrrole-3-carboxamide] | 5.7 | 0.0707 | 0.0124 |
| 4.3 | 84.3 | 0.05 | 0.1 | 0.2 | 3.9 | COc1cc(OCCN2CCOCC2)ccc1CC(=O)N1CCc2cc(-c3cc(C(=O)N(c4ccc(O)cc4)c4cc(C#N)n(C)c4C)c(C)n3C)c(C(=O)N3Cc4ccccc4C[C@H]3CN3CCCCC3)cc2C1 [Example 114, N-(5-cyano-1,2-dimethyl-1H-pyrrol-3-yl)-N-(4-hydroxyphenyl)-5-[2-(2-{2-methoxy-4-[2-(morpholin-4-yl)ethoxy]phenyl}acetyl)-7-[(3S)-3-[(piperidin-1-yl)methyl]-1,2,3,4-tetrahydroisoquinoline-2-carbonyl]-1,2,3,4-tetrahydroisoquinolin-6-yl]-1,2-dimethyl-1H-pyrrole-3-carboxamide] | 6.09 | 0.0602 | 0.0099 |
| 2.2 | 56.4 | 0.04 | 0.14 | 0.2 | 5.6 | Cc1c(N(C(=O)c2cc(-c3cc4c(cc3C(=O)N3Cc5ccccc5C[C@H]3CN3CCCCC3)CN(C(=O)Cc3ccc(OCCN5CCN(C)CC5)cc3)CC4)n(C)c2C)c2ccc(O)cc2)cc(C#N)n1C [Example 119, N-(5-cyano-1,2-dimethyl-1H-pyrrol-3-yl)-N-(4-hydroxyphenyl)-1,2-dimethyl-5-[2-(2-{4-[2-(4-methylpiperazin-1-yl)ethoxy]phenyl}acetyl)-7-[(3S)-3-[(piperidin-1-yl)methyl]-1,2,3,4-tetrahydroisoquinoline-2-carbonyl]-1,2,3,4-tetrahydroisoquinolin-6-yl]-1H-pyrrole-3-carboxamide] | 2.57 | 0.073 | 0.0284 |
| 6.1 | 15.3 | 0.4 | 1.33 | 2.3 | 5.8 | Cc1c(N(C(=O)c2cc(-c3cc4c(cc3C(=O)N3Cc5ccccc5C[C@H]3CN3CCC(F)(F)CC3)CN(C(=O)Cc3ccc(OCCN5CCOCC5)cc3F)CC4)n(C)c2C)c2ccc(O)cc2)cc(C#N)n1C [Example 130, N-(5-cyano-1,2-dimethyl-1H-pyrrol-3-yl)-5-{7-[(3S)-3-[(4,4-difluoropiperidin-1-yl)methyl]-1,2,3,4-tetrahydroisoquinoline-2-carbonyl]-2-(2-{2-fluoro-4-[2-(morpholin-4-yl)ethoxy]phenyl}acetyl)-1,2,3,4-tetrahydroisoquinolin-6-yl}-N-(4-hydroxyphenyl)-1,2-dimethyl-1H-pyrrole-3-carboxamide] | 4.69 | 0.0258 | 0.0055 |
| 8.7 | 37.8 | 0.23 | 0.53 | 1.5 | 6.5 | Cc1c(N(C(=O)c2cc(-c3cc4c(cc3C(=O)N3Cc5ccccc5C[C@H]3CN3CCCCC3)CN(C(=O)Cc3ccc(CCN5CCC(F)(F)CC5)cc3)CC4)n(C)c2C)c2ccc(O)cc2)cc(C#N)n1C [Example 131, N-(5-cyano-1,2-dimethylpyrrol-3-yl)-5-[2-(2-{4-[2-(4,4-difluoropiperidin-1-yl)ethyl]phenyl}acetyl)-7-{[(3S)-3-(piperidin-1-ylmethyl)-3,4-dihydro-1H-isoquinolin-2-yl]carbonyl}-3,4-dihydro-1H-isoquinolin-6-yl]-N-(4-hydroxyphenyl)-1,2-dimethylpyrrole-3-carboxamide] | 6.759 | 0.244 | 0.0361 |
